Experimental data as given in patent US20100273726A1, “METHICILLIN-RESISTANT STAPHYLOCOCCUS AUREUS ACTIVE METABOLITES ISOLATED FROM LAURUS NOBILIS AND COMBINATIONS THEREOF” (TRITON BIOPHARMA, priority 2009, published 2010).

Columns and labels:
[1] = preliminary maximum tolerated dose experiment; format: in vivo; details: maximum of 20 mg/kg IP for two days
Procedure: The number of MRSA isolated from vancomycin treated animals was 2.2×10^7 g of tissue, a reduction of 72% compared to vehicle control. Similarly, the number of MRSA recovered after treatment with compound (1) at 3 mg/kg and 15 mg/kg were 2.6×10^7 and 1.8×10^7 respectively, which correspond to a reduction of 67% and 78% as compared to vehicle control. […] To determine the maximum tolerated dose in the preliminary experiment, a maximum of 20 mg/kg of compound (1) was giving IP for two days.

[2] = test system: Methicillin-resistant Staphylococcus aureus; assay: In vivo MRSA assay, thigh infection in neutropenic mice; parameters: species or system Mice (CD-1); details: for number of MRSA cfu per gram of muscle tissue: sacrificed after 48 hours; for reduction compared to vehicle control: 48 hours
Procedure: The in vivo antimicrobial activity for the isolated glycosides is represented in FIGS. 2A and 2B. Mice (CD-1) were purchased from Harlan Inc. and acclimatized up to 5 days before use. Food and water were available ad libitum throughout the study. They were rendered neutropenic by two injections of cyclophosphamide (100 mg/kg) given intraperitoneally, one and four days before infection. A volume of 50 uL suspension of Methicillin-resistant Staphylococcus aureus (1.5×10^6 live organisms) was injected intramuscularly (1M) into each of the two rear thighs. Each thigh was considered as an individual data point (total of 4 data points for each treatment). These mice were randomly distributed into the control or treatment groups (n=2/group).
Treatment with the test compound (1) was initiated via the intraperitoneal route 2 hrs after thigh inoculation. Control animals were concurrently administered saline (mock treatment) or vancomycin in the same volume as those receiving compound (1). All animals were sacrificed after 48 hours by CO2 inhalation. Immediately following sacrifice, thigh tissue was collected from the animals, weighed, and homogenized in 5.0 mL of saline. Thigh muscle homogenate was then processed for microbiological assay to determine the number of MRSA cfu per gram of muscle tissue.

[3] = test system: methicillin resistant Staphylococcus aureus (MRSA); assay: in vitro antimicrobial evaluation (modified CLSI method); format: cell-based; details: IC50 from percent growth versus test concentration
Procedure: The in vitro antimicrobial activity for the isolated glycosides is represented in FIG. 1. A modified version of CLSI (formerly NCCLS) method was used for the in vitro evaluation of test samples. Duplicate samples were transferred to 96-well microplates after diluting with 0.9% saline. The microbial cell suspensions were to give the desired target inocula after addition to the samples. Media and solvent controls were included in each assay. The IC50 was calculated by plotting percent growth versus test concentration.

[4] = test system: MRSA; details: background statement; cited from earlier work
[5] = vancomycin control, dose not given

C[C@@H]1O[C@@H](Oc2c(-c3ccc(O)cc3)oc3cc(O)cc(O)c3c2=O)[C@H](OC(=O)/C=C/c2ccc(O)cc2)[C@H](OC(=O)/C=C/c2ccc(O)cc2)[C@H]1O [compound 1, kaempferol 3-O-α-L-(2″,3″-di-E-p-coumaroyl)rhamnoside]
acute toxicity / untoward effect [1]: No untoward effect
number of MRSA cfu per gram of muscle tissue ([2]; 3 mg/kg intraperitoneal, 2 hrs after inoculation): 2.6×10^7 cfu/g
reduction compared to vehicle control ([2]; 3 mg/kg intraperitoneal): 67%
number of MRSA cfu per gram of muscle tissue ([2]; 15 mg/kg intraperitoneal, 2 hrs after inoculation): 1.8×10^7 cfu/g
reduction compared to vehicle control ([2]; 15 mg/kg intraperitoneal): 78%

C[C@@H]1O[C@@H](Oc2c(-c3ccc(O)cc3)oc3cc(O)cc(O)c3c2=O)[C@H](OC(=O)/C=C\c2ccc(O)cc2)[C@H](OC(=O)/C=C\c2ccc(O)cc2)[C@H]1O [compound 4, kaempferol 3-O-α-L-(2″,3″-di-Z-p-coumaroyl)rhamnoside]
in vitro activity (rank among the four compounds) [3]: most potent

CN[C@H](CC(C)C)C(=O)N[C@H]1C(=O)N[C@@H](CC(N)=O)C(=O)N[C@H]2C(=O)N[C@H]3C(=O)N[C@H](C(=O)N[C@H](C(=O)O)c4cc(O)cc(O)c4-c4cc3ccc4O)[C@H](O)c3ccc(c(Cl)c3)Oc3cc2cc(c3O[C@@H]2O[C@H](CO)[C@@H](O)[C@H](O)[C@H]2O[C@H]2C[C@](C)(N)[C@H](O)[C@H](C)O2)Oc2ccc(cc2Cl)[C@H]1O [vancomycin, reference compound]
success rate [4]: 35-57%
reduction compared to vehicle control [2, 5]: 72%
number of MRSA cfu per gram of muscle tissue [2, 5]: 2.2×10^7 cfu/g
